According to patent US20200147117A1, “COMBINATION CANCER THERAPY” (BIOSIGHT LTD., priority 2017, published 2020):
Read-outs that look alike come from different tables or passages of the source.

Key:
Molt-4 cells = experiment: Activity of Asp-Cytarabine/BST-236 on Molt-4 cells, 48 hr, 10% FCS (Table 5); assay type: cell-based, human
[1] = tested on: Molt-4 human leukemia cell line; experiment: Molt-4 cell proliferation, MTT assay, 72 hr; assay type: cell-based
Experimental: Molt-4 human leukemia cell line was obtained from ATCC. The cells were grown in RPMI medium containing 10% FBS and 1% glutamine Cells were seeded in 96-well plates, 50,000 cells/ml, 0.2 ml per well. Test substances were diluted in PBS and added in final concentrations of 0.1 nM to 10 μM, in a volume of 20 μl. The study was conducted in triplicates. PBS was used as a control. Plates were incubated for 72 hr at 37° C. with 5% CO2. At the end of the treatment period, a MTT assay using the MTT reagent [3-(4,5-dimethylthiazol-2-yl)-2,5-diphenyltetrazolium bromide] was performed. MTT was added to each well at a concentration of 5 mg/ml in a volume of 0.02 ml. Plates were incubated at 37° C. for 3 hours. The plates were centrifuged at 3500 rpm for 5 minutes and the supernatant was aspirated. The pellets which contained MTT crystals were each dissolved in 0.2 ml DMSO. Absorbance was determined using ELISA reader at a wavelength of 570 nm.

[2] = PK analysis from Phase I/II studies after infusion; assay type: in vivo
Excerpt: Accordingly, synergistic interactions may be observed within […] administration of BST-236.

U937 cells = experiment: Activity of BST-236 on U937 cells, 48 hr, 10% FCS (Table 3); assay type: cell-based, human
[3] = tested on: U937 human hematological cancer cells; experiment: Proliferation and survival of U937 cells, PI staining / FACS, 72 hours; assay type: cell-based
Experimental: U937 human hematological cancer cells were cultured in RPMI supplemented with 10% FCS. […] Azacitidine (AZA) was added to the cell cultures at 5 different concentrations: 0, 100, 250, 1000, 5000 nM. […] All groups were analyzed in triplicates. […] The percentage of inhibition was calculated.

U937 leukemia cells = experiment: Animal model of leukemia: NSG mice injected IV with U937 cells; assay type: in vivo, NOD scid gamma (NSG) mice; conditions: for Spleen size / weight compared to the control mice: s.c. daily, FIG. 4
Experimental: The effect of BST-236 in combination with azacytidine on the survival of U937 leukemia cells in vivo was next examined NOD scid gamma (NSG) mice were irradiated with 200 rad, 24 hours before injection with U937 cells. On Day 0, mice (4-5 animals per group), were injected intravenously (IV) with 7×10^6 U937 cells in a total volume of 200 μL PBS. On Days 16-22 (7 days, first study) or 13-18 (6 days, second study), mice were daily injected subcutaneously (s.c.) with BST-236 (5 mg/mouse; ˜250 mg/kg), azacytidine (designated AZA; 6 mg/kg), or BST-236 (5 mg/mouse; ˜250 mg/kg) and AZA (6 mg/kg). Twenty-four hours after the last injection, mice were sacrificed, and spleen, blood, and bone marrow were analyzed for mouse and human CD45^+ cells using fluorescence-activated cell sorting (FACS).
Given that finding, experiments will be performed using even lower doses of BST-236 to evaluate synergistic activity with, e.g., AZA. It is, for example, expected that 20 mg/kg BST-236 will be efficacious. Accordingly, in a particular embodiment, NSG mice will be dosed with 20 mg/kg BST-236 alone, 6 mg/kg AZA alone, or a combination of 20 mg/kg BST-236 and 6 mg/kg AZA to investigate synergistic activity with this dosing regimen. It is understood that synergistic activity may also be observed at lower doses of AZA in combination with 20 mg/kg BST-236.

[4] = BST-236 5 mg/mouse, AZA 6 mg/kg

NC(CC(=O)Nc1ccn([C@@H]2O[C@H](CO)C(O)C2O)c(=O)n1)C(=O)O (stereo partly shown) [Asp-Cytarabine]
Activity on Molt-4 cells (count) (Molt-4 cells; 1 nM, 48 hr, 10% FCS): 18778.00 | Activity on Molt-4 cells (count) (Molt-4 cells; 10 nM, 48 hr, 10% FCS): 17759.00 | Activity on Molt-4 cells (count) (Molt-4 cells; 50 nM, 48 hr, 10% FCS): 14258.67 | Activity on Molt-4 cells (count) (Molt-4 cells; 100 nM, 48 hr, 10% FCS): 12006.67 | Activity on Molt-4 cells (count) (Molt-4 cells; 250 nM, 48 hr, 10% FCS): 9572.00 | Activity on Molt-4 cells (count) (Molt-4 cells; 1000 nM, 48 hr, 10% FCS): 3156.33 | Activity on Molt-4 cells (count) (Molt-4 cells; 5000 nM, 48 hr, 10% FCS): 2037.33 | inhibition at 0.001 µM (Molt-4 cells; Homo sapiens, MOLT-4, 1 nM, 48 hr, 10% FCS, read-out: Activity on Molt-4 cells (inhibition relative to 0)): 1.88% | inhibition at 0.01 µM (Molt-4 cells; Homo sapiens, MOLT-4, 10 nM Asp-Cytarabine, read-out: inhibition of Molt-4 cells): < 10% | inhibition at 0.01 µM (Molt-4 cells; Homo sapiens, MOLT-4, 10 nM, 48 hr, 10% FCS, read-out: Activity on Molt-4 cells (inhibition relative to 0)): 7.21% | inhibition at 0.05 µM (Molt-4 cells; Homo sapiens, MOLT-4, 50 nM, 48 hr, 10% FCS, read-out: Activity on Molt-4 cells (inhibition relative to 0)): 25.5% | inhibition at 0.1 µM (Molt-4 cells; Homo sapiens, MOLT-4, 100 nM, 48 hr, 10% FCS, read-out: Activity on Molt-4 cells (inhibition relative to 0)): 37.3% | inhibition at 0.25 µM (Molt-4 cells; Homo sapiens, MOLT-4, 250 nM, 48 hr, 10% FCS, read-out: Activity on Molt-4 cells (inhibition relative to 0)): 50% | inhibition at 1 µM (Molt-4 cells; Homo sapiens, MOLT-4, 1000 nM, 48 hr, 10% FCS, read-out: Activity on Molt-4 cells (inhibition relative to 0)): 83.5% | inhibition at 5 µM (Molt-4 cells; Homo sapiens, MOLT-4, 5000 nM, 48 hr, 10% FCS, read-out: Activity on Molt-4 cells (inhibition relative to 0)): 89.3% | IC50 [1]: 47 nM | Concentration decline following infusion cessation ([2]; Phase I/II studies): rapidly declined in an apparent biphasic manner | Concentration relative to the peak ([2]; at 6-10 hours from the completion of the infusion): ≤ 5 % of the peak | Activity on U937 cells (count) (U937 cells; 1 nM, 48 hr, 10% FCS): 16958 | Activity on U937 cells (count) (U937 cells; 10 nM, 48 hr, 10% FCS): 16994 | Activity on U937 cells (count) (U937 cells; 50 nM, 48 hr, 10% FCS): 15769.67 | Activity on U937 cells (count) (U937 cells; 100 nM, 48 hr, 10% FCS): 15228.33333 | Activity on U937 cells (count) (U937 cells; 250 nM, 48 hr, 10% FCS): 14819.67 | Activity on U937 cells (count) (U937 cells; 1000 nM, 48 hr, 10% FCS): 6185.667 | Activity on U937 cells (count) (U937 cells; 5000 nM, 48 hr, 10% FCS): 2116 | inhibition at 0.001 µM (U937 cells; Homo sapiens, U-937, 1 nM, 48 hr, 10% FCS, read-out: Activity on U937 cells (inhibition relative to 0)): -2.27% | inhibition at 0.01 µM (U937 cells; Homo sapiens, U-937, 10 nM, 48 hr, 10% FCS, read-out: Activity on U937 cells (inhibition relative to 0)): -2.49% | inhibition at 0.05 µM (U937 cells; Homo sapiens, U-937, 50 nM, 48 hr, 10% FCS, read-out: Activity on U937 cells (inhibition relative to 0)): 4.9% | inhibition at 0.1 µM (U937 cells; Homo sapiens, U-937, 100 nM, 48 hr, 10% FCS, read-out: Activity on U937 cells (inhibition relative to 0)): 8.16% | inhibition at 0.25 µM (U937 cells; Homo sapiens, U-937, 250 nM Asp-Cytarabine administered alone, read-out: inhibition of U937 cells): < 20% | inhibition at 0.25 µM (U937 cells; Homo sapiens, U-937, 250 nM, 48 hr, 10% FCS, read-out: Activity on U937 cells (inhibition relative to 0)): 10.6% | inhibition at 1 µM (U937 cells; Homo sapiens, U-937, 1000 nM, 48 hr, 10% FCS, read-out: Activity on U937 cells (inhibition relative to 0)): 62.7% | inhibition at 5 µM (U937 cells; Homo sapiens, U-937, 5000 nM, 48 hr, 10% FCS, read-out: Activity on U937 cells (inhibition relative to 0)): 87.2% | % inhibition (growth inhibition of U937 cells) ([3]; BST236 250 nM alone): 19.1% | Spleen size / weight compared to the control mice (U937 leukemia cells; [4]): reduced spleen size | Animals that survived until the scheduled sacrifice (U937 leukemia cells; first study, s.c. daily Days 16-22, sacrifice on Day 23, BST-236 5 mg/mouse, AZA 6 mg/kg): 4/4

Nc1ncn([C@@H]2O[C@H](CO)[C@@H](O)[C@H]2O)c(=O)n1 [Azacitidine]
IC50 [1]: 2110 nM | % inhibition (growth inhibition of U937 cells) ([3]; AZA 100 nM alone): 1.68% | % inhibition (growth inhibition of U937 cells) ([3]; AZA 250 nM alone): −3.60% | % inhibition (growth inhibition of U937 cells) ([3]; AZA 1000 nM alone): 0.60% | % inhibition (growth inhibition of U937 cells) ([3]; AZA 5000 nM alone): 4.30% | Spleen size / weight compared to the control mice (U937 leukemia cells; [4]): reduced spleen size | Animals that died before the scheduled sacrifice (U937 leukemia cells; first study, AZA 6 mg/kg s.c. daily Days 16-22, sacrifice on Day 23): 1/4
